Experimental findings from PMC3975032, “ATPase Activity and ATP-dependent Conformational Change in the Co-chaperone HSP70/HSP90-organizing Protein (HOP)” (The Journal of Biological Chemistry, 2014) are described below.

Broadly, the pKd is the negative decadic logarithm of the Kd, by convention in mol/L.

The target of test [1] is T1, HOP-(1-543), full-length human HSP70/HSP90-organizing protein (Homo sapiens, UniProt P31948).
T1 construct: gene STIP1; full-length 1-543, His6-tagged (pCold I), E. coli BL21, Ni-NTA and Superdex 200; monomer
T1 sequence (P31948 whole entry): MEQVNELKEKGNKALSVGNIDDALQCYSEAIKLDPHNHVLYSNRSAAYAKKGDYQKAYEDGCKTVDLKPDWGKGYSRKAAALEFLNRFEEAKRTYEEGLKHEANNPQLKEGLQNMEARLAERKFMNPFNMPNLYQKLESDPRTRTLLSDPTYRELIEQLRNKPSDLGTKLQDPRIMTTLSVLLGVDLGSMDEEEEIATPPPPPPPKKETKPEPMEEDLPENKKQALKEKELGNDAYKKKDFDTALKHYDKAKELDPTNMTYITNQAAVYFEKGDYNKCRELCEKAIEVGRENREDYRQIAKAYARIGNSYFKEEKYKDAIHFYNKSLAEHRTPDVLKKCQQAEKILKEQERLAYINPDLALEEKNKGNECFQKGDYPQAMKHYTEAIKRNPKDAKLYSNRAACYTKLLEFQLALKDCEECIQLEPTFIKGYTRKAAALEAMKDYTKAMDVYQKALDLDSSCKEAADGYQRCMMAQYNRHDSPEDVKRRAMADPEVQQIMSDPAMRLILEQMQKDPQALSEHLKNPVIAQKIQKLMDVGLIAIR
The test is described as follows: protection from TPCK-trypsin digestion, SDS-PAGE. In kind it is binding. To be noted: 25 mM HEPES-KOH pH 7.4, 5 mM MgCl2, 100 mM KCl, 37 °C, 30 min.

Test [2] has as its target T2, HOP-(1-543), full-length human HSP70/HSP90-organizing protein (Homo sapiens, UniProt P31948, D186A).
T2 construct: gene STIP1; full-length 1-543, His6-tagged (pCold I), E. coli BL21, Ni-NTA and Superdex 200; monomer
Briefly: ATP hydrolysis rate versus ATP concentration. It is filed as biochemical. To be noted: 25 mM HEPES-KOH pH 7.4, 5 mM MgCl2, 50 mM KCl, 37 °C.

The target in test [3] is T1, HOP-(1-543), full-length human HSP70/HSP90-organizing protein. Briefly: 1H NMR titration (ATP H2/H8 shifts), non-linear fit. It is filed as binding.
The target of test [4] is T3, HOP-(1-359), TPR1-TPR2A (ATPase domain) (Homo sapiens, UniProt P31948).
T3 construct: gene STIP1; TPR1-DP1-TPR2A segment, residues 1-359, His6-tagged (pCold I), E. coli BL21
T3 sequence (P31948 1-359): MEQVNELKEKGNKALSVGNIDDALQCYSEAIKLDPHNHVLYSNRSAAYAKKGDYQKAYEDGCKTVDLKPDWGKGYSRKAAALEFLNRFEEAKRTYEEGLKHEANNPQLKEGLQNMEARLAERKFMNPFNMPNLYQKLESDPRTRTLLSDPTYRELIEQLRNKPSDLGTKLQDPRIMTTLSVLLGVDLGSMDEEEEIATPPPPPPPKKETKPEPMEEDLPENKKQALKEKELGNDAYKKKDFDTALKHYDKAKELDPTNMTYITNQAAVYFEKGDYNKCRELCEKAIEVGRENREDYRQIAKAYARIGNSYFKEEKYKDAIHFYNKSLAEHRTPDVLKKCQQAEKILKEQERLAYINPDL
The test is described as follows: 1H NMR chemical shift change (protein amide region). It is filed as binding. To be noted: 20 mM potassium phosphate pH 6.5, 50 mM KCl, 5 mM MgCl2, 25 °C, 10-fold molar excess ATP.

The structures appear in SMILES notation. pKd: −log10 of the molar value.

T2 sequence (P31948 whole entry D186A): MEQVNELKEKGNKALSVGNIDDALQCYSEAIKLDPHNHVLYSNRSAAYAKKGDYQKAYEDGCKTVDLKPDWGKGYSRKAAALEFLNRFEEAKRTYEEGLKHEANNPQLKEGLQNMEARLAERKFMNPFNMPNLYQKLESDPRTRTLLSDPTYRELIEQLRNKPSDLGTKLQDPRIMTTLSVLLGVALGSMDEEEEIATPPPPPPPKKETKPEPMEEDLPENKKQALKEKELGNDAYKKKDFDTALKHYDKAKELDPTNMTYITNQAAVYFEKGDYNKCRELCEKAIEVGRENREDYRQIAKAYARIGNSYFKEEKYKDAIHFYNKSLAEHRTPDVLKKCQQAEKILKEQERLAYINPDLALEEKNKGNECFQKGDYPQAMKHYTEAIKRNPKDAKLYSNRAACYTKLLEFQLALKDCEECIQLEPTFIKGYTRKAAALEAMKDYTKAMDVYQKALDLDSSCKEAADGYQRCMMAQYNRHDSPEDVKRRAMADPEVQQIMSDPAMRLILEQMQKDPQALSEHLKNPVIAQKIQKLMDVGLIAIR

Regarding `Nc1ncnc2c1ncn2[C@@H]1O[C@H](COP(=O)(O)OP(=O)(O)O)[C@@H](O)[C@H]1O` [ADP], the “protection efficiency at 5 mM” value in test [1] is 31.0 ± 8.9%. In the case of `Nc1ncnc2c1ncn2[C@@H]1O[C@H](COP(=O)(O)OP(=O)(O)NP(=O)(O)O)[C@@H](O)[C@H]1O` [AMP-PNP, adenosine 5′-(β,γ-imino)triphosphate], the “protection efficiency at 5 mM” value in test [1] is 28.6 ± 10.1%.

For the compound `Nc1ncnc2c1ncn2[C@@H]1O[C@H](COP(=O)(O)OP(=O)(O)OP(=O)(O)O)[C@@H](O)[C@H]1O` [ATP], the “ATP hydrolysis rate versus ATP concentration” value in test [2] is reported as “this mutation caused no significant change in ATPase activity”. Moreover, in test [3], the negative logarithm of the Kd (pKd) was 3.46. In addition, the “1H NMR chemical shift change (protein amide region)” value in test [4] is “These data indicated that ATP directly binds the ATPase domain of HOP”.
